Laboratory results as given in patent publication US20240122930A1, “INTEGRIN INHIBITORS AND USES THEREOF IN COMBINATION WITH OTHER AGENTS” (Pliant Therapeutics, Inc., priority 2022, published 2024).
Like-named read-outs stand apart in the source and are kept apart here.

Assays:
COL1A1 expression = assay: Precision cut lung slices from human IPF explants, COL1A1 expression; type: cell-based
Description: Explanted lung tissue was obtained from human IPF subjects and inflated with agarose as described in the preceding examples. Biopsy cores were obtained from the agarose-inflated lung tissue. The biopsy cores were subjected to precision slicing to obtain several hundred μm thick. Individual slices were distributed in a multiwell culture plate and cultured for […] under control (DMSO) and test compound conditions. The viability of the slices over the course of culturing was confirmed by WST-1 assay of mitochondrial activity.
PCLS from 5-7 idiopathic pulmonary fibrosis (IPF) lung tissue samples were cultured for seven days with one of: DMSO; Compound 5 at 200 nM; nintedanib at 75 nM; pirfenidone at 50 μM; a combination of Compound 5 at 200 nM and nintedanib at 75 nM; a combination of Compound 5 at 200 nM and pirfenidone at 50 μM; or an ALK5 inhibitor at 1 μM. […] FIG. 6D is a bar graph showing relative expression of COL1A1 in precision cut lung slices (PCLS) from idiopathic pulmonary fibrosis (IPF) lung tissue upon exposure to Compound 5, clinical standard of care compounds nintedanib (Nin) and pirfenidone (Pirf), and an ALK5 inhibitor, all versus DMSO control.
PCLS from a single IPF lung tissue sample were cultured for seven days with Compound 5 at concentrations of 200 pM, 2 nM, 60 nM, 200 nM, and 1 μM, along with 0.1% DMSO control and an ALK5 inhibitor at 1 μM. […] COL1A1 expression is also graphed for the PCLS in the presence of 0.1% DMSO control, and an ALK5 inhibitor at 1 μM.

[1] = SAD and MAD first-in-human pharmacokinetic studies; type: in vivo; conditions: SAD study, 75 mg oral solution, healthy human subjects; for AUC(0-t): human, po, 75 mg
Experimental: Healthy human subjects (N=85) were selected for single ascending dose (SAD) and multiple ascending dose (MAD) first-in-human studies. A solution for oral administration was prepared, containing 10 mg/mL of Compound 5 in a 50:50 mixture of […], Michigan) and sterile water for irrigation. Sufficient solution was administered orally to the subjects to provide between 15 mg/dose and 75 mg/dose of Compound 5 in the SAD study and between 10 mg/dose and 40 mg/dose of Compound 5 in the MAD study. Concentrations of Compound 5 were measured in the subjects by obtaining a sample of plasma from each subject at desired intervals, and subjecting the plasma to liquid chromatography-mass spectrometry-mass spectrometry (LC-MS/MS), with quantification using a calibration curve determined from a range of solutions at standardized concentrations. The lower limit of quantitation (LLOQ) of the assay was 1 ng/mL and the calibration curve range was 1 to 500 ng/mL.

[2] = tested on: patients with idiopathic pulmonary fibrosis (IPF); assay: Phase 2a randomized, double-blind, placebo-controlled trial in IPF; type: in vivo, human
Description: The exploratory endpoints of the trial measured changes in forced vital capacity (FVC), HRCT-based Quantitative Lung Fibrosis score (QLF), and selected biomarkers over 3 months of treatment.

[3] = Phase 2a clinical trial: pharmacokinetics, sparse sampling, % unbound; type: in vivo, human; conditions: b1346 concentrations; b1380 unbound concentrations
Description: Overall Summary of Pharmacokinetics. Based on sparse sampling, overall Compound 5 pharmacokinetics and % unbound in IPF were consistent with that of previous studies. […] Overall % unbound was ˜0.3 to 0.5%. Full PK curve will be predicted using population PK model to project AUC0-24 and Cmax.
Pharmacokinetic Evaluation. Sparse PK sampling was utilized for pharmacokinetic evaluation.

[4] = tested on: participants with idiopathic pulmonary fibrosis (IPF); assay: Phase 2a clinical trial: quantitative ground glass (QGG) score on HRCT; type: in vivo, human; conditions: for QGG score, Change to Week 12, LS Mean (SE): placebo 0.0 (0.63); for QGG score, Change to Week 24, LS Mean (SE): placebo −0.7 (1.66)
[5] = tested on: participants with idiopathic pulmonary fibrosis (IPF); assay: Phase 2a clinical trial ([…]-IPF): Forced Vital Capacity (FVC) spirometry; type: in vivo, human; conditions: for Proportion of Participants with FVCpp Decline ≥10%, ITT, FIG. 20: placebo (N=23) 17.4%; for LS Mean (SE) change from Baseline in FVC at Week 12, ITT, Not on SoC subgroup, FIG. 30: placebo (n=7) −28.2; for Proportion of participants with Absolute FVCpp decline ≥10%, ITT, FIG. 31 / Proportion of participants with Relative FVCpp decline ≥10%, ITT, FIG. 29: placebo (n=31) 12.9%; for LS Mean (SE) change from Baseline in FVC at Week 12, mITT, FIG. 27: placebo (n=31) −64.2
[6] = 12 weeks, 40/80/160 mg once daily

SMILES: COCCN(CCCCc1ccc2c(n1)NCCC2)CC[C@H](Nc1ncnc2ccccc12)C(=O)O [Compound 5, (S)-4-((2-methoxyethyl) (4-(5,6,7,8-tetrahydro-1,8-naphthyridin-2-yl)butyl)amino)-2-(quinazolin-4-ylamino) butanoic acid]
- reduction of COL1A1 expression (COL1A1 expression; human IPF PCLS (5-7 tissues), 7 days, Compound 5 at 200 nM alone): 43%
- lung Col1a1 expression, normalized to DMSO control slices (COL1A1 expression; human IPF PCLS, 3 days, 3G9 ≥400 ng/mL, Compound 5 179 nM, ALK5 inhibitor 1 μM): substantial, statistically significant (p<0.01 vs vehicle) decrease
- COL1A1 expression, dose response (COL1A1 expression; human IPF PCLS, 7 days, 200 pM to 1 μM): dose dependent reduction
- reduction of COL1A1 expression (COL1A1 expression; human IPF PCLS, 7 days, Compound 5 at 200 nM in combination with nintedanib at 75 nM): 55%
- reduction of COL1A1 expression (COL1A1 expression; human IPF PCLS, 7 days, Compound 5 at 200 nM in combination with pirfenidone at 50 μM): 49%
- Thalf [1]: 20.0 ± 3.6 h
- AUC(0-t) ([1]; plasma, read-out: AUC0-24): 19700 ± 10900 ng·h/mL
- AUC(0-t) ([1]; plasma, read-out: AUC0-48): 22500 ± 15700 ng·h/mL
- Cmax ([1]; plasma): 1870 ± 1240 ng/mL
- Tmax ([1]; plasma): 2.9 ± 1 h
- tolerability ([2]; 40 mg, 80 mg, 160 mg once daily, 12 weeks): well tolerated
- increase in FVC relative to baseline ([2]; 80 mg treatment group, 12 weeks): +24.6 mL
- severity of most treatment emergent adverse events (TEAE) [2, 6]: mild or moderate
- treatment related deaths or drug related serious adverse events (SAE) [2, 6]: No treatment related deaths or drug related serious adverse events
- plasma concentrations vs dose ([2]; 40/80/160 mg once daily): generally dose proportional increases
- patients who completed 12 weeks of treatment with no discontinuations due to adverse events ([2]; 67 patients treated, 40/80/160 mg once daily): 97%
- serious adverse events ([2]; administration of Compound 5 alone, patients): did not result in serious adverse events
- serum biomarkers of collagen synthesis ([2]; change from baseline at 4 and 12 weeks vs. placebo, FIG. 33): reduced
- treatment-emergent adverse events (TEAEs) ([2]; combinations with nintedanib or with pirfenidone, patients): resulted in treatment-emergent adverse events
- reduction in FVC decline over 12 weeks versus placebo ([2]; pooled Compound 5 groups): approximately 80%
- circulating biomarkers integrin beta-6 (ITGB6) and Type III collagen synthesis neoepitope (PRO-C3) levels ([2]; relative to the placebo group, FIG. 40): reduced
- Concentrations in IPF participants versus dose [3]: increased approximately proportionally with dose
- QGG score, Change to Week 12, LS Mean Diff (SE) vs. Placebo ([4]; 40 mg (n 15)): 1.3 (1.04)
- QGG score, Change to Week 12, LS Mean (SE) ([4]; 40 mg (n 15)): 1.3 (0.82)
- QGG score, Change to Week 12, LS Mean Diff (SE) vs. Placebo ([4]; 80 mg (n 18)): −1.2 (0.98)
- QGG score, Change to Week 12, LS Mean (SE) ([4]; 80 mg (n 18)): −1.2 (0.74)
- QGG score, Change to Week 12, LS Mean Diff (SE) vs. Placebo ([4]; 160 mg (n 14)): −0.1 (1.05)
- QGG score, Change to Week 12, LS Mean (SE) ([4]; 160 mg (n 14)): 0.0 (0.84)
- QGG score, Change to Week 24, LS Mean Diff (SE) vs. Placebo ([4]; 320 mg (n 14)): −1.2 (1.53)
- QGG score, Change to Week 24, LS Mean (SE) ([4]; 320 mg (n 14)): −1.8 (1.31)
- QGG score, Change to Week 12, LS Mean Diff (SE) vs. Placebo ([4]; 320 mg (n 16)): −0.2 (1.01)
- QGG score, Change to Week 12, LS Mean (SE) ([4]; 320 mg (n 16)): −0.2 (0.79)
- QGG score, Change to Week 24, LS Mean Diff (SE) vs. Placebo ([4]; All Compound 5 (n 14)): −1.2 (1.53)
- QGG score, Change to Week 24, LS Mean (SE) ([4]; All Compound 5 (n 14)): −1.8 (1.31)
- QGG score, Change to Week 12, LS Mean Diff (SE) vs. Placebo ([4]; All Compound 5 (n 63)): −0.1 (0.76)
- QGG score, Change to Week 12, LS Mean (SE) ([4]; All Compound 5 (n 63)): −0.1 (0.40)
- Ground glass scores over a 12-24 week period after treatment ([4]; instant study): decreased or remained stable
- LS Mean Change From Baseline in FVC at week 12, On SoC Subgroup (MMRM, ITT) ([5]; 40 mg (N=17), placebo −95.2 mL): -58.3 mL
- Proportion of Participants with FVCpp Decline ≥10%, ITT, FIG. 20 ([5]; 40 mg (N=22), 12 weeks): 18.2%
- LS Mean (SE) change from Baseline in FVC at Week 12, ITT, Not on SoC subgroup, FIG. 30 ([5]; 40 mg (n=5)): -43.5 mL
- Proportion of participants with Absolute FVCpp decline ≥10%, ITT, FIG. 31 ([5]; 40 mg (n=22)): 9.1%
- Proportion of participants with Relative FVCpp decline ≥10%, ITT, FIG. 29 ([5]; 40 mg (n=22)): 18.2%
- Proportion of Participants with FVCpp Decline ≥10%, ITT, FIG. 20 ([5]; 80 mg (N=23), 12 weeks): 8.7%
- LS Mean (SE) change from Baseline in FVC at Week 12, ITT, Not on SoC subgroup, FIG. 30 ([5]; 80 mg (n=4)): 138.5 mL
- Proportion of participants with Absolute FVCpp decline ≥10%, ITT, FIG. 31 ([5]; 80 mg (n=23)): 8.7%
- Proportion of participants with Relative FVCpp decline ≥10%, ITT, FIG. 29 ([5]; 80 mg (n=23)): 8.7%
- LS Mean (SE) change from Baseline in FVC at Week 12, mITT, FIG. 27 ([5]; 80 mg (n=23)): 22.8 mL
- Proportion of Participants with FVCpp Decline ≥10%, ITT, FIG. 20 ([5]; 160 mg (N=22), 12 weeks): 4.5%
- LS Mean (SE) change from Baseline in FVC at Week 12, ITT, Not on SoC subgroup, FIG. 30 ([5]; 160 mg (n=3)): 26.4 mL
- Proportion of participants with Absolute FVCpp decline ≥10%, ITT, FIG. 31 ([5]; 160 mg (n=22)): 4.5%
- Proportion of participants with Relative FVCpp decline ≥10%, ITT, FIG. 29 ([5]; 160 mg (n=22)): 4.5%
- LS Mean (SE) change from Baseline in FVC at Week 12, mITT, FIG. 27 ([5]; 160 mg (n=22)): -28.7 mL
- Participants with a ≥10% absolute decline in FVC over 24 weeks ([5]; 320 mg): no Compound 5-treated participants
- LS Mean (SE) change from Baseline in FVC at Week 12, ITT, Not on SoC subgroup, FIG. 30 ([5]; 320 mg (n=4)): 19.8 mL
- Proportion of participants with Absolute FVCpp decline ≥10%, ITT, FIG. 31 ([5]; 320 mg (n=21)): 0%
- Proportion of participants with Relative FVCpp decline ≥10%, ITT, FIG. 29 ([5]; 320 mg (n=21)): 0%
- LS Mean (SE) change from Baseline in FVC at Week 12, mITT, FIG. 27 ([5]; 320 mg (n=21)): 26.8 mL
- Participants with a decline of ≥10% in percent predicted FVC (FVCpp) ([5]; 320 mg, 12 weeks): No participants
- Reduction of the decline from baseline in FVCpp compared to placebo ([5]; 320 mg, Week 24): 68%
- Average decrease in FVC at 24 weeks, ITT, SoC subgroup, FIG. 35 ([5]; 320 mg, patients on standard of care (pirfenidone or nintedanib), placebo 172.8 mL): 35.0 mL
- Patients showing an improvement in FVC at 24 weeks, ITT, FIG. 36 ([5]; 320 mg, placebo 0%): 50%
- Average decrease in FVC at 24 weeks, ITT, FIG. 34 ([5]; 320 mg, placebo 109.3 mL): 35.9 mL
- Change in FVC percent predicted from baseline at Week 24, ITT, FIG. 37 ([5]; 320 mg, placebo −[…]): −0.8%
- Proportion of participants with FVCpp decline of ≥10% ([5]; 40, 80, 160 mg, 12 weeks): dose-dependent reduction
- Change in FVC from Baseline to Week 12 (MMRM, ITT) ([5]; pooled Compound 5 groups 40-160 mg (n = 67), placebo −74.1 mL): -15.1 mL
- Reduction in FVC decline over 12 weeks compared to placebo ([5]; pooled active groups 40-160 mg): 80%
